{
  "source": "ChEMBL document CHEMBL5608237",
  "about": "“Merging Natural Product Structures with Pharmaceutical Leads: Unnatural Enantiomers of Estranes as Glucocorticoid Receptor Modulators That Suppress TNF-α and IL-6 Release” (J Med Chem, 2024)",
  "key": {"[1]": {"test": "Inhibition of IL-6 production in recombinant human IL-1 beta induced A549 cells assessed as maximum inhibition preincubated with compound for 1 hr followed by IL-1 beta addition and measured after 20 hrs by MSD assay relative to control", "type": "functional", "details": "time 21 hrs"}, "Androgen receptor": {"biological_target": "T1, Androgen receptor (Homo sapiens, UniProt P10275)", "T1 sequence (P10275 whole entry)": "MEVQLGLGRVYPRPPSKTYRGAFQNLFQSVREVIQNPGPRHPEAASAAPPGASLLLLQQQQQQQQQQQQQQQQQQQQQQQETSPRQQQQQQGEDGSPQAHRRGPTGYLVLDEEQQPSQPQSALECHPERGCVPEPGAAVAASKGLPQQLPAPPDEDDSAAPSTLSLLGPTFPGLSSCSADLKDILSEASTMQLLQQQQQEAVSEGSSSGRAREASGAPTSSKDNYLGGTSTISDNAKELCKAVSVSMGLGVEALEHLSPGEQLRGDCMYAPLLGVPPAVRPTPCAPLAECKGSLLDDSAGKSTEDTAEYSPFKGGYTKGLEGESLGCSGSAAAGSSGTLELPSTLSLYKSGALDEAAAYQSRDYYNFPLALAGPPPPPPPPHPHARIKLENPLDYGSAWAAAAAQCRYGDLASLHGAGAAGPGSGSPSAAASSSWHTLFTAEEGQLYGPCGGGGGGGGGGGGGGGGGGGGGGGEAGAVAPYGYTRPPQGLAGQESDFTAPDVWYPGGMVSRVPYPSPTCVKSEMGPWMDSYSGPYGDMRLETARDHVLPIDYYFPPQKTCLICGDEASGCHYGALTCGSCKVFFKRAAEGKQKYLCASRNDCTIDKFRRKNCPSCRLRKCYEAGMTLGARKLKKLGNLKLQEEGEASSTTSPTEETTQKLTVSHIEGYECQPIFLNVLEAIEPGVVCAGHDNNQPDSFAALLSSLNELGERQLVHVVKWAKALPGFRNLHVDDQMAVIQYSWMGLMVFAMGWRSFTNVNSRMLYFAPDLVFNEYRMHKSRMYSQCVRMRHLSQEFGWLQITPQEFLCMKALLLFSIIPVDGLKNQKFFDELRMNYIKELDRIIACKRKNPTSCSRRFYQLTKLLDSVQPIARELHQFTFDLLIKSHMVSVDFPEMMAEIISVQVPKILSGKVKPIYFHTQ", "test": "Antagonist activity at human androgen receptor transfected in African green monkey CV-1 cells cotransfected with genetic response element-luciferase reporter gene assessed as inhibition of 5alpha-dihydro-11-keto testosterone induced response incubated for 22 hrs by luciferase detection reagent based assay", "type": "cell-based"}, "[2]": {"test": "Inhibition of TNF alpha production in recombinant human IL-1 beta induced A549 cells assessed as maximum inhibition preincubated with compound for 1 hr followed by IL-1 beta addition and measured after 20 hrs by MSD assay relative to control", "type": "functional", "details": "time 21 hrs"}},
  "data": [
    {"compound": "CC#C[C@]1(O)CC[C@H]2[C@@H]3CCC4=CC(=O)CCC4=C3[C@@H](c3ccc(N(C)C)cc3)C[C@@]21C", "note": "[MIFEPRISTONE]", "values": [
      {"measurement": "inhibition (INH)", "setting": "[1]", "value": "<20", "unit": "%"}
    ]},
    {"compound": "Cc1ncccc1Nc1ccc2c(c1)CCC1=C3C[C@@H](O)C[C@]3(C)CC[C@]12Cc1ccccc1", "values": [
      {"measurement": "IC50", "setting": "Androgen receptor", "value": 174, "unit": "nM"}
    ]},
    {"compound": "Cc1ncncc1Nc1ccc2c(c1)CCC1=C3C[C@@H](O)C[C@]3(C)CC[C@]12Cc1ccccc1", "values": [
      {"measurement": "IC50", "setting": "Androgen receptor", "value": "> 10000", "unit": "nM"}
    ]},
    {"compound": "Cc1ncncc1Nc1ccc2c(c1)CCC1=C3C[C@H](O)C[C@]3(C)CC[C@]12Cc1ccccc1", "values": [
      {"measurement": "IC50", "setting": "Androgen receptor", "value": "> 10000", "unit": "nM"}
    ]},
    {"compound": "Cc1ncccc1NC(=O)c1ccc2c(c1)CC[C@@H]1C[C@@](O)(C(F)(F)F)CC[C@@]21Cc1ccccc1", "note": "[DAGROCORAT]", "values": [
      {"measurement": "inhibition (INH)", "setting": "[1]", "value": 60, "unit": "%"},
      {"measurement": "inhibition (INH)", "setting": "[2]", "value": 60, "unit": "%"}
    ]},
    {"compound": "C[C@@H]1C[C@H]2[C@@H]3CCC4=CC(=O)C=C[C@]4(C)[C@@]3(F)[C@@H](O)C[C@]2(C)[C@@]1(O)C(=O)CO", "note": "[DEXAMETHASONE]", "values": [
      {"measurement": "Imax", "setting": "[1]", "value": 98, "unit": "%"},
      {"measurement": "Imax", "setting": "[2]", "value": 100, "unit": "%"}
    ]},
    {"compound": "Cc1ncccc1Nc1ccc2c(c1)CCC1=C3C[C@@H](O)C[C@]3(C)CC[C@]12C", "values": [
      {"measurement": "IC50", "setting": "Androgen receptor", "value": 401, "unit": "nM"}
    ]},
    {"compound": "Cc1ncccc1NC(=O)c1ccc2c(c1)C(=O)C[C@@H]1C[C@@](O)(c3ccccc3)[C@H](O)C[C@@]21Cc1ccccc1", "values": [
      {"measurement": "inhibition (INH)", "setting": "[1]", "value": 60, "unit": "%"},
      {"measurement": "inhibition (INH)", "setting": "[2]", "value": 60, "unit": "%"}
    ]}
  ]
}
